Measured values: the NIST ThermoML archive (doi:10.1016/j.fluid.2014.04.020)
± gives the expanded uncertainty stated by the source.

Columns and labels:
[1] = Crystal; DTA
[2] = Molar enthalpy of transition or fusion; conditions: Crystal; DSC

Row | Normal melting temperature [1] | Molar enthalpy of transition or fusion [2] | Structure (SMILES)
1 | 27.80 ± 0.53 °C | 14.7 ± 0.645 kcal/mol | CCCCCCCCCCCCCCCCCC [octadecane]
2 | 31.10 ± 0.53 °C | 6.51 ± 0.287 kcal/mol | CCCCCCCCCC(=O)O [decanoic acid]
3 | 43.00 ± 0.53 °C | 8.48 ± 0.382 kcal/mol | CCCCCCCCCCCC(=O)O [dodecanoic acid]
